Experimental findings from PubChem BioAssay (NCI) are described below.

Assay in all cases: NCI tumour cell line growth inhibition, 48 h
Assay [1] concerns HCT-15 colon.
Assay [2] has as its system MOLT-4 leukemia.
The subject of assay [3] is OVCAR-8 ovarian.
Assay [4] deals with RXF 393 renal.
In assay [5] the test system is SF-295 CNS.
For assay [6], the system named is SK-MEL-28 melanoma.
The test system of assay [7] is SNB-75 CNS.
For assay [8], the system named is UACC-257 melanoma.
Assay [9] deals with UACC-62 melanoma.

Structures are written as SMILES.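 1) Cells in 96-well plates. 2) Compound, 48 h, 5 concentrations. 3) Linear interpolation between surrounding doses. 4) Unreached endpoint = highest concentration. Abbreviation: GI50, concentration required for 50% inhibition of growth. TGI: total growth inhibition.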

With `O=C(Cc1nc2ccccc2s1)Nc1cccc(C(F)(F)F)c1`, the TGI in assay [1] worked out at 30.3 µM; in assay [2] it was 25.8 µM; in [3] it was 38.1 µM; in assay [4], 32.3 µM; in assay [5] it was 30.7 µM; in assay [6] it was 28.8 µM. Further, the TGI in [7] is 26.8 µM; in [8] it was 28.7 µM; in [9], 25.4 µM.

On to `O=CC[C@H]1CCc2ccccc2C12CCC(=O)CC2`, for which the TGI in assay [1], in assay [2], in assay [3], in assay [5], in assay [7] and in [8] was over 100 µM each time. In addition, in assay [9], the TGI was over 100 µM.

Turning to `COc1cc2c3c(c1OC)-c1c(ccc4c1OCO4)CC3(C#N)N(C(=O)c1ccccc1)CC2` (centres undefined), the TGI in assay [1] was over 100 µM; in assay [2], over 100 µM; in assay [3], over 100 µM; in assay [4], over 100 µM; in assay [5], over 100 µM; in assay [7] it was 49.4 µM. In addition, the TGI in [8] and in assay [9] was over 100 µM in each case.

Regarding `O=[N+]([O-])c1cccc(C2ON2C2CCCCC2)c1` (centres undefined), the TGI in assay [1] is 30.7 µM; in [2] it was 64.7 µM; in [3], 32.8 µM; in assay [5], over 100 µM; in assay [6], over 100 µM; in [7] it was over 100 µM. Also, the TGI in assay [8] was 49.6 µM; in assay [9], 48 µM.

Consider `COC(=O)CCC(=O)CC(=O)C(=O)Nc1c(Cl)cc([N+](=O)[O-])cc1Cl`, for which the TGI in [1], in [2], in [3], in assay [4], in assay [5] and in [6] was over 100 µM throughout. Moreover, the TGI in assay [7], in assay [8] and in assay [9] was over 100 µM throughout.

With `CCc1cccc(C(C)C)c1NC(=O)C(=O)C(CC(=O)Nc1ccc(Cl)c(Cl)c1)C(=O)OC` (centres undefined), the TGI was 32.8 µM in [1]; over 100 µM in [2]; over 100 µM in assay [3]; over 100 µM in [4]; over 100 µM in assay [5]; over 100 µM in [6]. In addition, the figures for the TGI in [7], in assay [8] and in assay [9] were over 100 µM, over 100 µM and 6.77 µM, respectively.

For `C[C@]1(CO)CCC[C@@]2(C)C1CC[C@H]1CC3C[C@]12CC[C@]3(C)O` (some centres undefined), the TGI in assay [1], in assay [2], in [3], in assay [4], in assay [5] and in [6] was over 100 µM throughout. For the same compound, the TGI in assay [7], in [8] and in assay [9] was over 100 µM each time.

As to `Clc1ccc(C2SCc3nc4ccccc4n32)cc1Cl` (centres undefined), the TGI in assay [1] was 28.4 µM; in [2], over 100 µM; in [3], 26.9 µM; in [4], 15.7 µM; in assay [5], 24.2 µM; in assay [6], 25.4 µM. The TGI in [7] is 14.3 µM; in assay [9], 27.1 µM.

For the compound `S=c1cc(S)sc2c1c(=S)sc1nc3ccccn3c(=S)c12`, the TGI in assay [1], in assay [2], in assay [3], in assay [4], in [5] and in assay [6] was over 100 µM throughout. Also, the TGI in assay [7] and in assay [9] was over 100 µM in each case.

On to `Fc1ccccc1C1CC(c2ccc3ccccc3c2)=Nc2ccccc2S1` (centres undefined), for which the TGI in assay [2], in assay [3], in assay [4], in assay [5], in [6] and in assay [8] was over 100 µM each time. Moreover, in assay [9], the TGI was over 100 µM.

`O=C(CC1(O)C(=O)Nc2c(Cl)cc(Cl)cc21)c1cccc2ccccc12` (centres undefined): the TGI was 31 µM in assay [1]; 66.9 µM in assay [2]; 32.2 µM in assay [3]; 37.1 µM in assay [4]; 29.2 µM in [5]; 34.1 µM in assay [6]. Besides, the TGI in assay [7] was determined as 33.1 µM; in assay [8], 29.8 µM; in assay [9] it was 28.9 µM.

As to `CC(=O)c1ccc(NC(=O)C(=O)Nn2c(=S)[nH]c3ccccc3c2=O)cc1`, the TGI in [1], in assay [2], in [3], in [4], in [5] and in assay [6] was over 100 µM in each case. The TGI in assay [7], in assay [8] and in assay [9] was over 100 µM in each case.

Consider `CCc1cccc(C(C)C)c1N1C(=O)C(=O)C(c2nc3ccccc3s2)C(=O)C1=O`, for which the TGI was over 50 µM in assay [1]; 42.7 µM in assay [2]; over 50 µM in assay [3]; over 50 µM in assay [4]; over 50 µM in [5]; over 50 µM in [6]. Besides, the TGI in [7], in assay [8] and in assay [9] was over 50 µM throughout.

Regarding `CCCCCCCCCCCCCP(=O)(O)OCC`, the TGI in assay [1], in [3], in assay [4], in [5], in assay [6] and in assay [7] was over 100 µM each time. Further, the TGI in [8] and in assay [9] was over 100 µM throughout.

As for `CC(C)(C)c1cc2c3c(c1)C(C(F)(F)F)(C(F)(F)F)O[Te]3(C)OC2(C(F)(F)F)C(F)(F)F`, the TGI in assay [1], in assay [2], in [4], in [5], in assay [6] and in assay [8] was over 100 µM throughout. The TGI in [9] was over 100 µM.

Consider `NCCCNCCCCN(CCCN)/[N+]([O-])=N\O`, for which the TGI in [1], in [2], in [3], in assay [4], in assay [5] and in assay [6] was over 100 µM throughout. For the same compound, the TGI in [7], in assay [8] and in [9] was over 100 µM in each case.

On to `C1=CC=C2NCCCNC3=CC=CC=CC3=NCCCN=C2C=C1`, for which the TGI in assay [1], in assay [2], in [3], in [5], in assay [6] and in assay [7] was over 100 µM each time. This compound displayed a TGI in assay [9] of over 100 µM.

Regarding `O=C(Cn1ccnc1[N+](=O)[O-])c1ccc(F)cc1`, the TGI in assay [1], in [2], in [3], in [4], in assay [5] and in assay [6] was over 100 µM in each case. Further, the TGI in assay [7], in assay [8] and in [9] was over 100 µM each time.

In the case of `COc1cc(OC)c(C2CC=Cc3c(OC)cc(OC)c(OC)c32)cc1OC` (centres undefined), the TGI in assay [1], in assay [2], in [3], in assay [4], in assay [5] and in [6] was over 100 µM each time. Also, the TGI in [7], in [8] and in [9] was over 100 µM throughout.

As to `COCCCNC(=O)CC(=O)NCCCOC`, the TGI in assay [1], in [2], in assay [3], in assay [4], in assay [5] and in assay [6] was over 100 µM throughout. In addition, the TGI in assay [8] and in assay [9] was over 100 µM throughout.

As for `CCC(=O)c1c(NOC2OC(COC(C)=O)C(OC(C)=O)C(OC(C)=O)C2OC(C)=O)nc(OC)n(C)c1=O` (centres undefined), the TGI in assay [1], in assay [2], in assay [3], in [4], in [5] and in [6] was over 100 µM throughout. In addition, the TGI in assay [7] and in assay [9] was over 100 µM each time.

With `COC1OC(COCc2ccc(Cl)cc2)C(OCc2ccc(Cl)cc2)C1N=[N+]=[N-]` (centres undefined), the TGI in [1], in assay [2], in assay [3], in assay [4], in assay [5] and in [6] was over 100 µM each time. For the same compound, the TGI in assay [7] was over 100 µM; in [8] it was over 100 µM; in assay [9], 75.7 µM.

On to `COC(=O)c1c(N)n[nH]c1N`, for which the TGI in [2], in assay [3], in assay [4], in [5], in assay [6] and in assay [7] was over 100 µM in each case. Moreover, the TGI in [8] and in assay [9] was over 100 µM in each case.

`CS(=O)(=O)N(N(CCCl)S(=O)(=O)c1ccccc1)S(C)(=O)=O`: the TGI in assay [1], in [2], in assay [3], in assay [4], in assay [5] and in assay [6] was over 100 µM throughout. Moreover, the TGI in [7], in assay [8] and in assay [9] was over 100 µM throughout.

For the compound `CN1CCN(c2ccc3nc(-c4ccc5nc(-c6ccc(OCCC(C)(C)C)cc6)[nH]c5c4)[nH]c3c2)CC1`, the GI50 in assay [1] was 12.1 µM; in assay [2], 3.12 µM; in assay [3] it was 4.69 µM; in [5], 2.34 µM; in assay [6], 3.03 µM; in assay [7], 3.46 µM. The figures for the GI50 in assay [8] and in assay [9] were 20.5 µM and 17.3 µM, respectively. The TGI amounted to 28.2 µM in assay [1]; 10.7 µM in [2]; 18.6 µM in assay [3]; 6.22 µM in assay [5]; 9.43 µM in assay [6]; 18 µM in [7]. Also, the TGI in assay [8] came to 38.3 µM; in [9] it was 40.1 µM.

Consider `O=[N+]([O-])c1cccc(-c2oc(C=Nc3ccccc3)c([N+](=O)[O-])c2-c2cccc([N+](=O)[O-])c2)c1`, for which the TGI in [2], in assay [3], in assay [4], in assay [5], in [6] and in assay [7] was over 100 µM each time. The TGI in assay [8] and in [9] was over 100 µM throughout.

Consider `CN(C)CCNC(=O)c1cccc2c1nc(-c1ccccc1)c1ccccc12`, for which the TGI turned out to be 13.1 µM in assay [1]; 2.16 µM in assay [2]; 19.6 µM in [3]; 9.43 µM in assay [4]; 18.7 µM in [5]; 21.3 µM in assay [6]. The TGI in assay [7] came to 19.9 µM; in [8], 3.48 µM; in assay [9], 24.4 µM.

For the compound `O=C(CCC(=O)C(C(=O)c1ccccc1)c1ccccc1)Nc1cccc(C(F)(F)F)c1` (centres undefined), the TGI in assay [1], in [2], in assay [3], in assay [5], in [8] and in [9] was over 100 µM each time.

Turning to `O=C(Nc1nc2ncn(CCNCc3ccccc3)c2c(=O)[nH]1)c1ccccc1`, the TGI in [1], in assay [3], in [4], in assay [5], in assay [6] and in assay [7] was over 100 µM in each case. The TGI in assay [8] and in assay [9] was over 100 µM in each case.

`CC1(C)Cc2cc(C(=O)O)c3c(c2C1=O)COCC3`: the TGI in assay [1], in assay [2], in [3], in assay [4], in assay [5] and in assay [7] was over 100 µM throughout. Also, the TGI in assay [8] and in assay [9] was over 100 µM throughout.

As to `CC1C[C@@H]2C(=O)NC(=O)[C@@H]2c2c1c1ccccc1n2C` (some centres undefined), the TGI in assay [1], in assay [2], in assay [3], in assay [4], in assay [5] and in [6] was over 100 µM each time. Moreover, the TGI in assay [7], in assay [8] and in assay [9] was over 100 µM each time.
